Test results: patent US20250271426A1, “REDUCTION OF BITTER TASTE OF ACTIVE PHARMACEUTICAL INGREDIENTS AND RELATED ASSAYS AND SCREENING METHODS” (Firmenich Incorporated, priority 2022, published 2025)

Tests used:
Experiment in all cases: FLIPR calcium assay, cells with promiscuous G protein transfected with bitter receptor cDNA
Assay type in all cases: cell-based
Conditions in all cases: responsive if cellular response of >10% over baseline, Fluo4-AM
[1] = target: T1, T2R receptor SEQ ID NO: 2 (S2) (Homo sapiens, UniProt Q9NYW2)
T1 construct: expressed in transfected cells; host or cells: cells expressing a promiscuous G protein (e.g., G16g44)
T1 sequence (Q9NYW2 1-309): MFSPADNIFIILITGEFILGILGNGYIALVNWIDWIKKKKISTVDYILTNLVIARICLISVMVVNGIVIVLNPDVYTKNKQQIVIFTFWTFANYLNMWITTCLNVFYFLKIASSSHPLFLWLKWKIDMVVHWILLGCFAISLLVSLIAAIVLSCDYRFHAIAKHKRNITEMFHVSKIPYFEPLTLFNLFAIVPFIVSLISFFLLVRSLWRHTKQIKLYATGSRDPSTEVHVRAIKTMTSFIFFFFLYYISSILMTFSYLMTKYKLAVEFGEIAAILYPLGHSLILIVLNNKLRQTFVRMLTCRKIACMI
Procedure, shortened: (§1)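 Transfect G16g44-expressing cells, one T2R per well; incubate 28 h. Load Fluo4-AM 60 min, wash. Stimulate with bitter agonist, record Ca fluorescence on FLIPR. Hit = >10% over baseline.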

[2] = target: T2, T2R receptor SEQ ID NO: 1 (S1) (Homo sapiens, UniProt Q9NYW7)
T2 construct: expressed in transfected cells; host or cells: cells expressing a promiscuous G protein (e.g., G16g44)
T2 sequence (Q9NYW7 1-299): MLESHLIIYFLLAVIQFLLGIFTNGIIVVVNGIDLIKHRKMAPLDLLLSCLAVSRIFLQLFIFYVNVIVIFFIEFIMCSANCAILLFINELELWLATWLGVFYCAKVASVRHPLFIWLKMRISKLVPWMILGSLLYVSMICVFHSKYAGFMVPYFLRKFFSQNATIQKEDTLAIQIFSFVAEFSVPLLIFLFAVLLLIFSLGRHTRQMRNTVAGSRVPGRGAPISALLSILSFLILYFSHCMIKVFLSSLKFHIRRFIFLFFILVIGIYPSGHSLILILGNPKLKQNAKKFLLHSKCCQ
Procedure, shortened: as §1

[3] = target: T3, T2R receptor SEQ ID NO: 3 (S3) (Homo sapiens, UniProt Q9NYW0, T156M)
T3 construct: expressed in transfected cells; host or cells: cells expressing a promiscuous G protein (e.g., G16g44)
T3 sequence (Q9NYW0 1-307 T156M): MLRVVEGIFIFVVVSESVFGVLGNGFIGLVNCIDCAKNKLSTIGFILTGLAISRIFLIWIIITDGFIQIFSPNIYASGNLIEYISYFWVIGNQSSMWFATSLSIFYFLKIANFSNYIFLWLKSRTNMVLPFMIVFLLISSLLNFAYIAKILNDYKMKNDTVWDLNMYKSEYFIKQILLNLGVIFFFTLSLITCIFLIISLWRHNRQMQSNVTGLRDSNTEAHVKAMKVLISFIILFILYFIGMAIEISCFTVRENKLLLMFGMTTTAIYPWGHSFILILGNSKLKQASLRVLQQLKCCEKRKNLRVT
Procedure, shortened: as §1

[4] = target: T4, T2R receptor SEQ ID NO: 6 (S6) (Homo sapiens, UniProt P59540)
T4 construct: expressed in transfected cells; host or cells: cells expressing a promiscuous G protein (e.g., G16g44)
T4 sequence (P59540 1-309): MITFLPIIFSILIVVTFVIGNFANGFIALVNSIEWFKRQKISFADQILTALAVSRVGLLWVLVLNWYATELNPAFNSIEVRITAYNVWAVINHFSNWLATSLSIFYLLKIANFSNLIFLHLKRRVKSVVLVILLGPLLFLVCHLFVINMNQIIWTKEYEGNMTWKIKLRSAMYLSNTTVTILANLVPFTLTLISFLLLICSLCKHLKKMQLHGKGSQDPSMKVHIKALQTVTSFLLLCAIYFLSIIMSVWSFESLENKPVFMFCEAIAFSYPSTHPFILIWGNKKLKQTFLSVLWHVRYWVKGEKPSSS
Procedure, shortened: as §1

[5] = target: T5, T2R receptor SEQ ID NO: 5 (S5) (Homo sapiens, UniProt P59534)
T5 construct: expressed in transfected cells; host or cells: cells expressing a promiscuous G protein (e.g., G16g44)
T5 sequence (P59534 18-338): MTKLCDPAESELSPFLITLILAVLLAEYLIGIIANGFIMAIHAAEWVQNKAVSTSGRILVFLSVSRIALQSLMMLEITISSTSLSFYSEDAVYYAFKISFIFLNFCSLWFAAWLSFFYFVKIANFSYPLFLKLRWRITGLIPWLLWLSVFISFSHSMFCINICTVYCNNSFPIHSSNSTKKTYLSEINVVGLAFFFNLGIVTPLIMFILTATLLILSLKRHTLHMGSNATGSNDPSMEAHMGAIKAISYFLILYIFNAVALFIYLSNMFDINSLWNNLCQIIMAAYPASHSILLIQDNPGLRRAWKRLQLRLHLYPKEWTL
Procedure, shortened: as §1

[6] = target: T6, T2R receptor SEQ ID NO: 4 (S4) (Homo sapiens, UniProt Q9NYV8)
T6 construct: expressed in transfected cells; host or cells: cells expressing a promiscuous G protein (e.g., G16g44)
T6 sequence (Q9NYV8 1-317): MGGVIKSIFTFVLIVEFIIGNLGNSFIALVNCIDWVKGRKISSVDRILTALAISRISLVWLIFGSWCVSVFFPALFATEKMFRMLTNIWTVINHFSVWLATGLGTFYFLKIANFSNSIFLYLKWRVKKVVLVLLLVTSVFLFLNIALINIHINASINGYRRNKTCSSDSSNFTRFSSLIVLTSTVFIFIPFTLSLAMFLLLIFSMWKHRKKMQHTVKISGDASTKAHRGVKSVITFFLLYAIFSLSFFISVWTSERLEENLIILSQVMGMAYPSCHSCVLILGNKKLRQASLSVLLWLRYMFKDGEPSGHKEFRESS
Procedure, shortened: as §1

Structure (SMILES)	S2 positive response of T2R receptor to API [1]	S1 positive response of T2R receptor to API [2]	S3 positive response of T2R receptor to API [3]	S6 positive response of T2R receptor to API [4]	S5 positive response of T2R receptor to API [5]	S4 positive response of T2R receptor to API [6]
CCN(CC)CCCC(C)Nc1ccnc2cc(Cl)ccc12 (stereo not drawn) [Chloroquine]	+ (a “+” to indicate whether a particular T2R receptor showed a positive response to a particular API)	+ (a “+” to indicate whether a particular T2R receptor showed a positive response to a particular API)	+ (a “+” to indicate whether a particular T2R receptor showed a positive response to a particular API)	+ (a “+” to indicate whether a particular T2R receptor showed a positive response to a particular API)	+ (a “+” to indicate whether a particular T2R receptor showed a positive response to a particular API)	+ (a “+” to indicate whether a particular T2R receptor showed a positive response to a particular API)
CN(C)CCC=C1c2ccccc2COc2ccccc21 [Doxepin]	+ (a “+” to indicate whether a particular T2R receptor showed a positive response to a particular API)	+ (a “+” to indicate whether a particular T2R receptor showed a positive response to a particular API)	+ (a “+” to indicate whether a particular T2R receptor showed a positive response to a particular API)	+ (a “+” to indicate whether a particular T2R receptor showed a positive response to a particular API)	+ (a “+” to indicate whether a particular T2R receptor showed a positive response to a particular API)	+ (a “+” to indicate whether a particular T2R receptor showed a positive response to a particular API)
CN(C)CCOC(C)(c1ccccc1)c1ccccn1 (stereo not drawn) [Doxylamine]	+ (a “+” to indicate whether a particular T2R receptor showed a positive response to a particular API)	+ (a “+” to indicate whether a particular T2R receptor showed a positive response to a particular API)	+ (a “+” to indicate whether a particular T2R receptor showed a positive response to a particular API)	+ (a “+” to indicate whether a particular T2R receptor showed a positive response to a particular API)	+ (a “+” to indicate whether a particular T2R receptor showed a positive response to a particular API)	+ (a “+” to indicate whether a particular T2R receptor showed a positive response to a particular API)
O=C(O)COCCN1CCN(C(c2ccccc2)c2ccc(Cl)cc2)CC1 (stereo not drawn) [Cetirizine]	+ (a “+” to indicate whether a particular T2R receptor showed a positive response to a particular API)	+ (a “+” to indicate whether a particular T2R receptor showed a positive response to a particular API)	+ (a “+” to indicate whether a particular T2R receptor showed a positive response to a particular API)	+ (a “+” to indicate whether a particular T2R receptor showed a positive response to a particular API)	+ (a “+” to indicate whether a particular T2R receptor showed a positive response to a particular API)	+ (a “+” to indicate whether a particular T2R receptor showed a positive response to a particular API)
CN(C)CCOC(c1ccccc1)c1ccccc1 [Diphenhydramine]	+ (a “+” to indicate whether a particular T2R receptor showed a positive response to a particular API)	+ (a “+” to indicate whether a particular T2R receptor showed a positive response to a particular API)	+ (a “+” to indicate whether a particular T2R receptor showed a positive response to a particular API)	+ (a “+” to indicate whether a particular T2R receptor showed a positive response to a particular API)	+ (a “+” to indicate whether a particular T2R receptor showed a positive response to a particular API)	+ (a “+” to indicate whether a particular T2R receptor showed a positive response to a particular API)
